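Compound exposure: 48 hours, 5 concentrations, 96-well plates. GI50: concentration for 50% inhibition of growth. TGI is the concentration that stops growth completely.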

For the first experiment, the system named is MOLT-4 leukemia. Kind of experiment: inhibition of tumour cell growth, NCI panel, 48 h.
`Cc1c(C(=O)/C=C/c2cccc3ccccc23)[n+](=O)c2ccccc2n1[O-]` yielded a TGI of 35.4 µM.

For the molecule `COc1cc([C@@H]2c3cc4c(cc3[C@@H](NC(=O)c3cccc([N+](=O)[O-])c3)C3COC(=O)[C@@H]32)OCO4)cc(OC)c1O` (some centres undefined), the TGI is greater than 100 µM.

`CCCNC(=O)OCc1c(COC(=O)NCCC)c(-c2ccc(Cl)c(Cl)c2)n2c1CCC2` had a TGI of 87.7 µM.

In the case of `CN(C)c1ccc2c(c1)oc(=O)c1ccccc12`, the TGI was 73.3 µM.

`C/C(=N\NC(N)=S)c1ccc(C)cc1C` gave a TGI greater than 100 µM.

As to `CN(C)CCNc1nc2ccccc2c2[nH]c3ccccc3c12`, the GI50 was 0.571 µM and the TGI was determined as 2.37 µM.

`O=C(N/N=C/c1cccc(O)c1O)N/N=C/c1cccc(O)c1O` gave a TGI of 46.8 µM.

Consider `COc1cc2c(cc1OC)C1C=NC(C(=O)O)(C2)c2ccccc21` (centres undefined), for which the TGI was greater than 100 µM.

For the molecule `CCCCCCCCCCCCCCC1OC(=O)c2ccccc21` (centres undefined), the TGI is greater than 100 µM.

The molecule `CN(C)CCNC(=O)c1cccc2nc3c(Cl)cccc3nc12` returned a TGI of 10.4 µM.

With `CC(C)(C)C1=NC(S)NC(CCC(=O)Nc2ccccc2[N+](=O)[O-])=C1` (centres undefined), the TGI is greater than 100 µM.

The test system of a further experiment is NCI-H460 lung. Nature of the experiment: inhibition of tumour cell growth, NCI panel, 48 h.
In turn, `NC1(CCCCCCCCCCC(=O)O)CNCCNCCNCCNC1` gave a TGI of 86.4 µM.

`C1CN2N3CCCC23C1` (centres undefined) came in with a TGI greater than 100 µM.

Take `CC[n+]1ccc2c(c1)C(=O)c1nccc3c1c-2nc1ccccc13`: the GI50 is 0.12 µM and the TGI amounted to 2.65 µM.

As for `CCCCCCCCCCCCOC1C(CNCC2OC3OC(C)(C)OC3C2NC(=O)Nc2ccc(C(=O)OCC)cc2)OC2OC(C)(C)OC21` (centres undefined), the GI50 is 2 µM and the TGI is 3.87 µM.

Regarding `NNC(=O)c1cnn(-c2ccnc3c(C(F)(F)F)cccc23)c1N`, the GI50 was greater than 100 µM and the TGI was greater than 100 µM.

In the case of `Cc1c(Cl)cccc1Nc1ncccc1C(=O)O`, the GI50 was 53 µM and the TGI was greater than 100 µM.

In turn, `C#CC(C)(C)Oc1cc(O)c2c(=O)c3ccccc3n(C)c2c1` returned a TGI greater than 100 µM.

In the case of `COc1ccc(CNC(=O)COc2ccc(/C=N/Nc3nc4ccccc4s3)cc2)cc1`, the GI50 is 2.65 µM and the TGI was 7.3 µM.

Take `COC(=O)c1c(OC)cccc1C(=O)O`: the TGI is greater than 100 µM.

The molecule `CC1=CCCC(OC(N)=O)C1` (centres undefined) showed a TGI greater than 100 µM.

Consider `O=[N+]([O-])c1ccc(NSc2ccccc2)cc1`, for which the TGI is greater than 100 µM.

`Cc1c(C(=O)/C=C/c2cccc3ccccc23)[n+](=O)c2ccccc2n1[O-]`: the TGI turned out to be 32.5 µM.

With `COc1cc([C@@H]2c3cc4c(cc3[C@@H](NC(=O)c3cccc([N+](=O)[O-])c3)C3COC(=O)[C@@H]32)OCO4)cc(OC)c1O` (some centres undefined), the TGI turned out to be 1.32 µM.

In turn, `CCCNC(=O)OCc1c(COC(=O)NCCC)c(-c2ccc(Cl)c(Cl)c2)n2c1CCC2` came in with a TGI of 17.2 µM.

`CN(C)c1ccc2c(c1)oc(=O)c1ccccc12` registered a TGI of 58 µM.

`C/C(=N\NC(N)=S)c1ccc(C)cc1C` displayed a TGI greater than 100 µM.

Turning to `CN(C)CCNc1nc2ccccc2c2[nH]c3ccccc3c12`, the GI50 is 0.244 µM and the TGI was 1.97 µM.

The molecule `O=C(N/N=C/c1cccc(O)c1O)N/N=C/c1cccc(O)c1O` gave a TGI greater than 100 µM.

With `COc1cc2c(cc1OC)C1C=NC(C(=O)O)(C2)c2ccccc21` (centres undefined), the TGI was greater than 100 µM.

The molecule `CN(C)S(=O)(=O)Nc1ccccn1` showed a TGI greater than 100 µM.

Take `CCCCCCCCCCCCCCC1OC(=O)c2ccccc21` (centres undefined): the TGI is greater than 100 µM.

Consider `CC(C)(C)C1=NC(S)NC(CCC(=O)Nc2ccccc2[N+](=O)[O-])=C1` (centres undefined), for which the TGI is greater than 100 µM.

In a further experiment the test system is EKVX NSCLC. Nature of the experiment: inhibition of tumour cell growth, NCI panel, 48 h.
`NC1(CCCCCCCCCCC(=O)O)CNCCNCCNCCNC1` returned a TGI greater than 100 µM.

For the molecule `C1CN2N3CCCC23C1` (centres undefined), the TGI is greater than 100 µM.

Regarding `CC[n+]1ccc2c(c1)C(=O)c1nccc3c1c-2nc1ccccc13`, the GI50 is 3.53 µM and the TGI came out at 8.92 µM.

In the case of `CCCCCCCCCCCCOC1C(CNCC2OC3OC(C)(C)OC3C2NC(=O)Nc2ccc(C(=O)OCC)cc2)OC2OC(C)(C)OC21` (centres undefined), the GI50 was 6.08 µM and the TGI came out at 18.9 µM.

In the case of `NNC(=O)c1cnn(-c2ccnc3c(C(F)(F)F)cccc23)c1N`, the GI50 was greater than 100 µM and the TGI was greater than 100 µM.

On to `Cc1c(Cl)cccc1Nc1ncccc1C(=O)O`, for which the GI50 is 34.1 µM and the TGI is greater than 100 µM.

For `C#CC(C)(C)Oc1cc(O)c2c(=O)c3ccccc3n(C)c2c1`, the TGI is greater than 100 µM.

In the case of `COc1ccc(CNC(=O)COc2ccc(/C=N/Nc3nc4ccccc4s3)cc2)cc1`, the GI50 was 2.98 µM and the TGI came to 32.5 µM.

Turning to `COC(=O)c1c(OC)cccc1C(=O)O`, the TGI was greater than 100 µM.

Regarding `CC1=CCCC(OC(N)=O)C1` (centres undefined), the TGI was greater than 100 µM.

As for `c1ccc(-c2nnc(-c3nn(-c4ccccc4)c4nc5ccccc5nc34)o2)cc1`, the TGI is greater than 100 µM.

Turning to `O=[N+]([O-])c1ccc(NSc2ccccc2)cc1`, the TGI is 90.1 µM.

In the case of `Cc1c(C(=O)/C=C/c2cccc3ccccc23)[n+](=O)c2ccccc2n1[O-]`, the TGI was 27.3 µM.

Molecule `COc1cc([C@@H]2c3cc4c(cc3[C@@H](NC(=O)c3cccc([N+](=O)[O-])c3)C3COC(=O)[C@@H]32)OCO4)cc(OC)c1O` (some centres undefined) yielded a TGI of 10.8 µM.

`CCCNC(=O)OCc1c(COC(=O)NCCC)c(-c2ccc(Cl)c(Cl)c2)n2c1CCC2`: the TGI amounted to 30.2 µM.

`CN(C)c1ccc2c(c1)oc(=O)c1ccccc12` had a TGI of 52.3 µM.

`C/C(=N\NC(N)=S)c1ccc(C)cc1C` came in with a TGI greater than 100 µM.

Take `CN(C)CCNc1nc2ccccc2c2[nH]c3ccccc3c12`: the GI50 was 1.7 µM and the TGI came out at 14.3 µM.

Molecule `O=C(N/N=C/c1cccc(O)c1O)N/N=C/c1cccc(O)c1O` showed a TGI greater than 100 µM.

On to `COc1cc2c(cc1OC)C1C=NC(C(=O)O)(C2)c2ccccc21` (centres undefined), for which the TGI was greater than 100 µM.

Molecule `CN(C)S(=O)(=O)Nc1ccccn1` displayed a TGI greater than 100 µM.

In turn, `CCCCCCCCCCCCCCC1OC(=O)c2ccccc21` (centres undefined) had a TGI greater than 100 µM.

Molecule `CN(C)CCNC(=O)c1cccc2nc3c(Cl)cccc3nc12` had a TGI of 32.9 µM.

Source of the values: PubChem BioAssay (NCI).
